Experimental data: PubChem BioAssay AID330 (DTP/NCI, 2004)
“And” between values parts separate entries of the source, which are not always exact repeats. Equal entries are not always repeated. Toxic doses and inconclusive results are not listed.

Test system: P388 leukemia ip, CD2F1 mice, survival T/C
Experiment: NCI In Vivo Anticancer Drug Screen. Data for tumor model P388 Leukemia (intraperitoneal) in CD2F1 (CDF1) mice
Conditions: endpoint: median survival time, higher = longer survival
Summary of the method: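 Mice carrying the transplanted tumor received test compound or vehicle. Survival was recorded in each group, and the value is the treated-group measurement divided by that of the vehicle-treated control group.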

[1] = dose: 60.0 mg/kg/injection, schedule: Q01DX005 (ip), vehicle: Klucel (hydroxypropylcellulose) (HPC)
[2] = dose: 120.0 mg/kg/injection, schedule: Q01DX005 (ip), vehicle: Klucel (hydroxypropylcellulose) (HPC)
[3] = dose: 240.0 mg/kg/injection, schedule: Q01DX005 (ip), vehicle: Klucel (hydroxypropylcellulose) (HPC)
[4] = dose: 50.0 mg/kg/injection, schedule: Q01DX009 (ip), vehicle: saline with Tween-80
[5] = dose: 100.0 mg/kg/injection, schedule: Q01DX009 (ip), vehicle: saline with Tween-80
[6] = dose: 200.0 mg/kg/injection, schedule: Q01DX009 (ip), vehicle: saline with Tween-80
[7] = dose: 100.0 mg/kg/injection, schedule: Q04DX003 (ip), vehicle: Klucel (hydroxypropylcellulose) (HPC)
[8] = dose: 200.0 mg/kg/injection, schedule: Q04DX003 (ip), vehicle: Klucel (hydroxypropylcellulose) (HPC)
[9] = dose: 60.0 mg/kg/injection, schedule: Q01DX005 (ip), vehicle: saline
[10] = dose: 120.0 mg/kg/injection, schedule: Q01DX005 (ip), vehicle: saline
[11] = dose: 25.0 mg/kg/injection, schedule: Q01DX005 (ip), vehicle: Klucel (hydroxypropylcellulose) (HPC)
[12] = dose: 50.0 mg/kg/injection, schedule: Q01DX005 (ip), vehicle: Klucel (hydroxypropylcellulose) (HPC)
[13] = dose: 100.0 mg/kg/injection, schedule: Q01DX005 (ip), vehicle: Klucel (hydroxypropylcellulose) (HPC)
[14] = dose: 200.0 mg/kg/injection, schedule: Q01DX005 (ip), vehicle: Klucel (hydroxypropylcellulose) (HPC)
[15] = dose: 60.0 mg/kg/injection, schedule: Q01DX005 (ip), vehicle: saline with Tween-80
[16] = dose: 120.0 mg/kg/injection, schedule: Q01DX005 (ip), vehicle: saline with Tween-80
[17] = dose: 240.0 mg/kg/injection, schedule: Q01DX005 (ip), vehicle: saline with Tween-80
[18] = dose: 50.0 mg/kg/injection, schedule: Q01DX005 (ip), vehicle: saline with Tween-80
[19] = dose: 100.0 mg/kg/injection, schedule: Q01DX005 (ip), vehicle: saline with Tween-80
[20] = dose: 200.0 mg/kg/injection, schedule: Q01DX005 (ip), vehicle: saline with Tween-80
[21] = dose: 50.0 mg/kg/injection, schedule: Q01DX009 (ip), vehicle: saline
[22] = dose: 100.0 mg/kg/injection, schedule: Q01DX009 (ip), vehicle: saline
[23] = dose: 200.0 mg/kg/injection, schedule: Q01DX009 (ip), vehicle: saline
[24] = dose: 25.0 mg/kg/injection, schedule: Q01DX009 (ip), vehicle: saline with Tween-80

For `O=C1CSC(c2ccccc2F)N1c1nncs1` (configuration not stated), the T/C (dose: 30.0 mg/kg/injection, schedule: Q01DX005 (ip), vehicle: Klucel (hydroxypropylcellulose) (HPC)) was 100 % of control, the T/C [1] was 99 % of control and the T/C [2] was 100 % of control. For the same molecule, the T/C [3] was 110 % of control.

For `CCCCCCCCCCCOCC(=O)OC`, the T/C [4] was 99 % of control, the T/C [5] was 101 % of control and the T/C [6] was 100 % of control.

For `Cc1cc(-n2c(C)nc3ccccc3c2=O)on1`, the T/C [1] was 101 % of control, the T/C [2] was 93 % of control and the T/C [3] was 104 % of control.

In the case of `O=C(CCC1(CCC(=O)c2ccccc2)c2ccccc2C(=O)c2ccccc21)c1ccccc1`, the T/C (dose: 25.0 mg/kg/injection, schedule: Q04DX003 (ip), vehicle: Klucel (hydroxypropylcellulose) (HPC)) is reported as 93 % of control, the T/C (dose: 50.0 mg/kg/injection, schedule: Q04DX003 (ip), vehicle: Klucel (hydroxypropylcellulose) (HPC)) is reported as 108 % of control and the T/C [7] is reported as 86 % of control. The T/C [8] was 91 % of control.

For `CC1CCC[N-]C1.CC1CCC[N-]C1.CC1CCC[N-]C1.CC1CCC[N-]C1.[Cl][Rh][Cl]` (configuration not stated), the T/C (dose: 1.5 mg/kg/injection, schedule: Q01DX009 (ip), vehicle: saline) was 122 % of control and the T/C (dose: 6.0 mg/kg/injection, schedule: Q01DX009 (ip), vehicle: saline) was 152 % of control.

For `CN(C)NC=O`, the T/C [9] was 102 % of control, the T/C [10] was 102 % of control and the T/C (dose: 240.0 mg/kg/injection, schedule: Q01DX005 (ip), vehicle: saline) was 114 % of control.

For `CCC(C)C1=NCCCN1` (configuration not stated), the T/C (dose: 100.0 mg/kg/injection, schedule: Q01DX001 (ip), vehicle: saline) was 100 % of control.

`C/C=C/C(=O)Oc1ccc[nH]c1=O` was tested, and the T/C [11] was 105 % of control and 91 % of control, the T/C [12] was 114 % of control and 116 % of control and the T/C [13] was 108 % of control and 113 % of control. For the same molecule, the T/C [14] was 92 % of control.

In the case of `COc1ccc(Cc2nnc(SC)n2-c2ccc(F)cc2)cc1OC`, the T/C [15] is reported as 102 % of control, the T/C [16] is reported as 95 % of control and the T/C [17] is reported as 102 % of control.

In the case of `CCNCC1COc2cccc(OCC)c2O1` (configuration not stated), the T/C (dose: 25.0 mg/kg/injection, schedule: Q04DX002 (ip), vehicle: saline) is reported as 104 % of control, the T/C (dose: 50.0 mg/kg/injection, schedule: Q04DX002 (ip), vehicle: saline) is reported as 101 % of control and the T/C (dose: 100.0 mg/kg/injection, schedule: Q04DX002 (ip), vehicle: saline) is reported as 99 % of control and 108 % of control.

For `c1ccc(N=c2nc(Nc3ccccc3)ss2)cc1`, the T/C [18] was 94 % of control, the T/C [19] was 86 % of control and the T/C [20] was 90 % of control.

For `CNC(=O)OCc1nn(-c2ccc(Cl)c(Cl)c2)c(C)c1COC(=O)NC`, the T/C (dose: 12.5 mg/kg/injection, schedule: Q01DX009 (ip), vehicle: distilled water + Tween-80) was 87 % of control and 93 % of control, the T/C (dose: 25.0 mg/kg/injection, schedule: Q01DX009 (ip), vehicle: distilled water + Tween-80) was 86 % of control and 89 % of control and the T/C (dose: 50.0 mg/kg/injection, schedule: Q01DX009 (ip), vehicle: distilled water + Tween-80) was 90 % of control. The T/C (dose: 100.0 mg/kg/injection, schedule: Q01DX009 (ip), vehicle: distilled water + Tween-80) was 88 % of control and the T/C (dose: 200.0 mg/kg/injection, schedule: Q01DX009 (ip), vehicle: distilled water + Tween-80) was 86 % of control and 87 % of control.

`CC(C)N(c1nccc(F)n1)C(C)C` was tested, and the T/C (dose: 25.0 mg/kg/injection, schedule: Q01DX005 (ip), vehicle: saline with Tween-80) was 103 % of control, the T/C [18] was 101 % of control and the T/C [19] was 103 % of control. For the same molecule, the T/C [20] was 104 % of control.

In the case of `COC(=O)C1CSC2(CCCN(Cc3ccccc3)C2)N1` (configuration not stated), the T/C [21] is reported as 105 % of control, the T/C [22] is reported as 122 % of control and the T/C [23] is reported as 109 % of control.

In the case of `COC(=O)c1c2c(cc3nc4ccccc4nc13)OCO2`, the T/C [15] is reported as 96 % of control, the T/C [16] is reported as 97 % of control and the T/C [17] is reported as 90 % of control.

For `CC1=C2CCC(O)C2(C)CCC(=O)C1` (configuration not stated), the T/C [7] was 105 % of control and the T/C [8] was 99 % of control.

With `Clc1ncnc2ccccc12` the T/C [18] was 105 % of control and the T/C [19] was 89 % of control.

In the case of `CN(C)c1ccc(/C=[N+](\C)[O-])cc1`, the T/C [21] is reported as 91 % of control, the T/C [22] is reported as 98 % of control and the T/C [23] is reported as 95 % of control.

In the case of `CC(CN(C)C)C(=O)/C=C/c1ccc(F)c(F)c1` (configuration not stated), the T/C [9] is reported as 100 % of control and 103 % of control and the T/C [10] is reported as 116 % of control and 124 % of control.

In the case of `C[C@]12CCC(=O)C=C1CC[C@@H]1[C@@H]2[C@@H](O)C[C@@]2(C)[C@H]1CC[C@]2(C)O`, the T/C [24] is reported as 90 % of control, the T/C [4] is reported as 100 % of control and the T/C [5] is reported as 100 % of control. The T/C (dose: 100.0 mg/kg/injection, schedule: Q04DX003 (ip), vehicle: saline with Tween-80) was 100 % of control, the T/C (dose: 200.0 mg/kg/injection, schedule: Q04DX003 (ip), vehicle: saline with Tween-80) was 100 % of control and the T/C (dose: 400.0 mg/kg/injection, schedule: Q04DX003 (ip), vehicle: saline with Tween-80) was 100 % of control.

`Cc1ccc(C(=O)Cc2ccc(C#N)cc2)cc1` was tested, and the T/C [24] was 99 % of control, the T/C [4] was 118 % of control and the T/C [5] was 108 % of control. The T/C [6] was 99 % of control.

`C/C=C/C=C\C=C/C(O)CC(OP(=O)(O)O)C(C)(O)/C=C/C1CC=CC(=O)O1` (configuration not stated) was tested, and the T/C (dose: 0.75 mg/kg/injection, schedule: Q01DX005 (ip), vehicle: water) was 116 % of control, the T/C (dose: 1.5 mg/kg/injection, schedule: Q01DX005 (ip), vehicle: water) was 119 % of control and the T/C (dose: 6.25 mg/kg/injection, schedule: Q01DX005 (ip), vehicle: water) was 183 % of control.

In the case of `COC(=O)c1cc(=O)n(-c2ccccc2)c(SC)n1`, the T/C (dose: 6.25 mg/kg/injection, schedule: Q04DX002 (ip), vehicle: Klucel (hydroxypropylcellulose) (HPC)) is reported as 106 % of control, the T/C (dose: 12.5 mg/kg/injection, schedule: Q04DX002 (ip), vehicle: Klucel (hydroxypropylcellulose) (HPC)) is reported as 96 % of control and the T/C (dose: 25.0 mg/kg/injection, schedule: Q04DX002 (ip), vehicle: Klucel (hydroxypropylcellulose) (HPC)) is reported as 98 % of control. For the same molecule, the T/C (dose: 50.0 mg/kg/injection, schedule: Q04DX002 (ip), vehicle: Klucel (hydroxypropylcellulose) (HPC)) was 104 % of control and the T/C (dose: 100.0 mg/kg/injection, schedule: Q04DX002 (ip), vehicle: Klucel (hydroxypropylcellulose) (HPC)) was 100 % of control and 98 % of control.

For `CCNCCNc1cc(O)c2c(c1O)C(=O)c1ccccc1C2=O`, the T/C [11] was 101 % of control and 102 % of control, the T/C [12] was 110 % of control and 111 % of control and the T/C [13] was 111 % of control and 112 % of control. For the same molecule, the T/C [14] was 122 % of control.

For `CCOC(=O)c1cc(N)c(C(=O)OCC)cc1N`, the T/C [4] was 97 % of control, the T/C [5] was 86 % of control and 96 % of control and the T/C [6] was 96 % of control and 97 % of control. For the same molecule, the T/C (dose: 400.0 mg/kg/injection, schedule: Q01DX009 (ip), vehicle: saline with Tween-80) was 92 % of control and 96 % of control.

With `ClCCOCCOc1c(Cl)cc(Cl)cc1Cl` the T/C (dose: 100.0 mg/kg/injection, schedule: Q01DX009 (ip), vehicle: Klucel (hydroxypropylcellulose) (HPC)) was 93 % of control, the T/C (dose: 200.0 mg/kg/injection, schedule: Q01DX009 (ip), vehicle: Klucel (hydroxypropylcellulose) (HPC)) was 103 % of control and the T/C (dose: 400.0 mg/kg/injection, schedule: Q01DX009 (ip), vehicle: Klucel (hydroxypropylcellulose) (HPC)) was 100 % of control.

With `COC(=O)N1c2ccccc2C(c2ccccc2)=NC1(C)C#N` (configuration not stated) the T/C [15] was 98 % of control, the T/C [16] was 99 % of control and the T/C [17] was 100 % of control.

`CC(C(=O)O)c1ccc2c(c1)[nH]c1ccc(Cl)cc12` (configuration not stated) was tested, and the T/C (dose: 6.25 mg/kg/injection, schedule: Q01DX009 (ip), vehicle: saline with Tween-80) was 106 % of control, the T/C (dose: 12.5 mg/kg/injection, schedule: Q01DX009 (ip), vehicle: saline with Tween-80) was 106 % of control and the T/C [24] was 105 % of control.

For `CSc1sc(C#N)c(N)c1N=Cc1ccccc1`, the T/C (dose: 12.5 mg/kg/injection, schedule: Q04DX002 (ip), vehicle: saline with Tween-80) was 106 % of control, the T/C (dose: 25.0 mg/kg/injection, schedule: Q04DX002 (ip), vehicle: saline with Tween-80) was 101 % of control and the T/C (dose: 50.0 mg/kg/injection, schedule: Q04DX002 (ip), vehicle: saline with Tween-80) was 97 % of control.

For `CC(NCCN(C)C)C1CC2CCCCN2C1` (configuration not stated), the T/C [15] was 104 % of control and the T/C [16] was 97 % of control.
